Assay results reported in US8273787B2, “Activated cytotoxic compounds for attachment to targeting molecules for the treatment of mammalian disease conditions” (Onconova Therapeutics, Inc, priority 2006, dated 2012).

Tests used:
CEM/C2 (RESISTANT) = assay: growth inhibition, CEM/C2 (resistant); type: cell-based, Human
Procedure: (§1) Two compounds were selected from our library of cytotoxic molecules for immunoconjugation since they both have IC50 values in the low nanomolar range. Various tumor cell lines (ATCC) were treated for 96 hours in the presence of increasing concentrations of each compound and the total number of viable cells remaining was determined after 96 hours of exposure. The IC50 value was determined to be the amount of drug required to inhibit the growth of each cell line 50% as compared to vehicle treated cells.
(§2) Another extremely important predictive factor is the ability of these compounds to kill cell lines overexpressing multiple drug resistance (MDR) genes. A very high percentage of cancer patient relapses are due to some form of resistance to traditional chemotherapy. Of these patients, the vast majority express one or more of the MDR genes within the ABC transport gene family. Overexpression of these genes increases the efflux of compounds that are recognized by these pumping systems. […] Onconova's benzyl styryl sulfone compounds are not recognized by the MDR-1 gene and therefore provide an advantage over other highly toxic drugs including but not limited to the taxanes, doxorubicin, etoposide, and vinca-alkaloids. […] MES-SA/Dx5, uterine sarcoma, and […], ovarian, are both classical multidrug resistant cell lines that are cross resistant to the taxanes and anthracyclins. Harker, W G, and Sikic, B. I., Multidrug (Pleiotropic) Resistance In Doxorubicin-Selected Variants Of The Human Sarcoma Cell Line MES-SA, Cancer Res. 45(9):4091-6 (1985). MES-SA/Dx5 and Apr. […] Fujimori, A., et al., Mutation At The Catalytic Site Of Topoisomerase I In CEM/C2, A Human Leukemia Cell Line Resistant To Camptothecin, Cancer Res. 55(6): 1339-46 (1995). ON 01500 and ON 013100, for example, are both extremely active against these resistant cell lines.

CEM = assay: 96 hour growth inhibition, CEM; type: cell-based; conditions: Homo sapiens, CCRF-CEM; CEM (PARENTAL)
Procedure: as §1, §2

2008 (PARENTAL) = assay: growth inhibition, 2008 (parental); type: cell-based; conditions: ovarian
Procedure: as §1, §2

MES-SA (PARENTAL) = assay: growth inhibition, MES-SA (parental); type: cell-based; conditions: Homo sapiens, uterine sarcoma
Procedure: as §1, §2

MES-SA/Dx5 (RESISTANT) = assay: growth inhibition, MES-SA/Dx5 (resistant); type: cell-based, Human
Procedure: as §1, §2

2008/17/4 (RESISTANT) = assay: growth inhibition, 2008/17/4 (resistant); type: cell-based
Procedure: as §1, §2

SMILES | RSIST-ANCE (CEM/C2 (RESISTANT); CEM/C2 (RESISTANT) versus CEM (PARENTAL)) | IC50 (CEM/C2 (RESISTANT); Homo sapiens, CEM/C2 (RESISTANT), non classical multiple drug resistant) | IC50 (CEM) | IC50 (2008 (PARENTAL)) | IC50 (MES-SA (PARENTAL)) | IC50 (MES-SA/Dx5 (RESISTANT); Homo sapiens, MES-SA/Dx5 (RESISTANT), uterine sarcoma, multidrug resistant) | RSIST-ANCE (MES-SA/Dx5 (RESISTANT); MES-SA/Dx5 (RESISTANT) versus MES-SA (PARENTAL)) | fold resistant (MES-SA/Dx5 (RESISTANT); MES-SA/Dx5 versus parental) | RSIST-ANCE (2008/17/4 (RESISTANT); 2008/17/4 (RESISTANT) versus 2008 (PARENTAL)) | IC50 (2008/17/4 (RESISTANT); 2008/17/4 (RESISTANT), ovarian, multidrug resistant) | fold resistant (2008/17/4 (RESISTANT); 2008/17/4 (printed Apr. 17, 2008) versus parental)
CC[C@@]1(O)C(=O)OCc2c1cc1n(c2=O)Cc2cc3ccccc3nc2-1 [CAMPTOTHECIN, reference compound] | 500 | 1000 nM | 2 nM | – | – | – | – | – | – | – | –
CC(=O)O[C@H]1C(=O)[C@@]2(C)[C@H]([C@H](OC(=O)c3ccccc3)[C@]3(O)C[C@H](OC(=O)[C@H](O)[C@@H](NC(=O)c4ccccc4)c4ccccc4)C(C)=C1C3(C)C)[C@]1(OC(C)=O)CO[C@@H]1C[C@@H]2O [PACLITAXEL, reference compound] | – | – | – | 3 nM | 4 nM | 750 nM | 188 | 188 fold | 667 | 2000 nM | 667 fold
